Biological target: T1, human Kir2.1 (Homo sapiens, UniProt P63252)
T1 construct: gene KCNJ2; tags kept
T1 sequence (P63252 1-427): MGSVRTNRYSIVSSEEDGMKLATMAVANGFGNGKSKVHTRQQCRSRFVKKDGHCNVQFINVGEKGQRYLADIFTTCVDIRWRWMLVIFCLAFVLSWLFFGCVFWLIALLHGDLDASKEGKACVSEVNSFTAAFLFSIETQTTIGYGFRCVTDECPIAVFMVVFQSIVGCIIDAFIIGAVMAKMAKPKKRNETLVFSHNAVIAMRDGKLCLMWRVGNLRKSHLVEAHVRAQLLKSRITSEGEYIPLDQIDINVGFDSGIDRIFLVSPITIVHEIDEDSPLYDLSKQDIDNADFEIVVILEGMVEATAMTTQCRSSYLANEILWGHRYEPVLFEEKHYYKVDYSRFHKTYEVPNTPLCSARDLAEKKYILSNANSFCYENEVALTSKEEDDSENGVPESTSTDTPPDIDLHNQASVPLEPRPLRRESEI
Assay: […]+ uptake into proteoliposomes
Type: biochemical

## CC(C)CCC[C@@H](C)[C@H]1CC[C@H]2[C@@H]3CC=C4C[C@@H](O)CC[C@]4(C)[C@H]3CC[C@]12C [cholesterol]
  % reduction of channel activity: ~ 45%
